One data set deals with T1, DNA topoisomerase I (Homo sapiens, UniProt P11387).
T1 sequence (P11387 1-765): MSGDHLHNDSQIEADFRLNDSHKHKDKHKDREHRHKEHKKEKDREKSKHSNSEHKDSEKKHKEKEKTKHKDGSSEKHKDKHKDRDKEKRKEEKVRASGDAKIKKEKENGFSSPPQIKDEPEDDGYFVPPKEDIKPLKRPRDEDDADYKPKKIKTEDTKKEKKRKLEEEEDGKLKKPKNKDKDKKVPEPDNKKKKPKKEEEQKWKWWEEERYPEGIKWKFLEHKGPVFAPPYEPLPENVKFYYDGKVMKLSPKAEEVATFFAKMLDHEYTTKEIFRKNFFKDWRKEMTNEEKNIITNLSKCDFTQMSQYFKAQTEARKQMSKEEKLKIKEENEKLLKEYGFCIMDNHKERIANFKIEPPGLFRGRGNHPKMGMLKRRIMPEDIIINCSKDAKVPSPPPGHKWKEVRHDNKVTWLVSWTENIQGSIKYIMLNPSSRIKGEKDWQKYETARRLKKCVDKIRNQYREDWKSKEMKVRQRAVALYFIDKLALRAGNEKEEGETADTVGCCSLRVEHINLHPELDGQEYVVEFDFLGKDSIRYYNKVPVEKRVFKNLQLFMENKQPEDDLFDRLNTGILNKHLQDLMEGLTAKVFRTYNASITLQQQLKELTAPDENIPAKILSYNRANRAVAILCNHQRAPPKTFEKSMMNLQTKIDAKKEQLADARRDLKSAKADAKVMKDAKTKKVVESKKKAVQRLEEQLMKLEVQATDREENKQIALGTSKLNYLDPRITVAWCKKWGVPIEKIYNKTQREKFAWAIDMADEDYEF
As to the kind of experiment: topoisomerase I-mediated DNA relaxation assay (cell-free). The format is biochemical. To be noted: read-out: DNA topoisomerase I inhibition (IC50). From the text:
SKB264 is a TROP2-targeting ADC, which consists of a recombinant humanized anti-TROP2 antibody and a topoisomerase I inhibitor derived from Belotecan (KL610023), integrated together via a sulfonyl pyrimidine-CL2A-carbonate linker. The payload is conjugated with the antibody through irreversible nucleophilic aromatic substitution by tris (2-carboxyethyl) phosphine hydrochloride (TCEP HCl), a reducing agent that can reduce the interchain disulfide bounds. The drug-to-antibody ratio (DAR) of SKB264 was approximately 7.4, which was determined by the reversed-phase chromatography (RPC), and might be the theoretical maximum drug loading number for conventional interchain cysteine conjugation ( Figure 1B ). SKB264 was designed to release payload KL610023 after internalization by TROP2-expressing tumor cells. The inhibitory effect of KL610023 on topoisomerase I was almost similar to that of SN-38, as measured by a topoisomerase I-mediated DNA relaxation assay ( Figure 1C ).
Figure 1 Structure and characterization of SKB264. […] (B) The distribution of the conjugated drug determined by the reverse-phase chromatography analysis (L-0: Unconjugated light chain, L-1: Light chain conjugated with one payload, H-0: Unconjugated heavy chain, H-1: Heavy chain conjugated with one payload, H-2: Heavy chain conjugated with two payloads, H-3: Heavy chain conjugated with three payloads). […]

For another data set, the system named is HCC1806 xenograft. As to the kind of experiment: PK-PD study, single dose, HCC1806 xenograft. The format is in vivo, BALB/c nude mice. Particulars: payload after single i.v. 3 mg/kg SKB264 (KL610023) or IMMU-132 (SN-38), HCC1806 tumor-bearing mice, mean, n = 5. How it is done: Phoenix WinNonlin 8.1 was used to calculate the PK parameters in the non-compartment model, including t 1/2, T max, C max, AUC0-t, and AUC0-∞. […] The half maximal effective concentration (EC50) and half maximal inhibitory concentration (IC50) were calculated using a nonlinear regression model with sigmoidal fitting. The in vitro antitumor activities of drugs were evaluated by a two-tailed paired t-test.

The next data set concerns HCC1806 (TROP2+). Put plainly: cytotoxic assay (CellTiter-Glo, 72 h) HCC1806. The format is cell-based, human. To be noted: HCC1806, payload comparison, Figure 7C, duplicates; read-out: IC50 inhibition of proliferation of HCC1806 cells. How it is done:
Tumor cells were seeded on 96-well plates at the following concentrations: HCC1806 (3,000 cells per well), NCI-N87 (5,000 cells per well), BxPC-3 (2,000 cells per well), Calu-3 (8,000 cells per well), NCI-H23 (TROP2+, 3,000 cells per well), and NCI-H23 (parental, 3,000 cells per well). After overnight incubation, the diluted testing items were added respectively. After 72 h, cell viability was evaluated using a CellTiter-Glo Luminescent Cell Viability Assay (Promega Corp. Madison, WI), following the manufacturer’s instruction.
For orientation: In ATP-based viability assays light output follows the ATP content of the culture.

Another data set has as its system NCI-N87 cells. As to the kind of experiment: endocytosis (internalization) experiment in NCI-N87. Format: cell-based, human. How it is done: (§1) To examine whether the anti-TROP2 mAb plays a targeting role via specifically recognizing the highly expressed TROP2 on the surface of tumor cells, the following experiments were conducted ([17]).
(§2) Figure 2 In vitro activities of SKB264. (A) Binding to human TROP2 estimated by ELISA (duplicates, mean ± SEM). (B) SKB264 binding to HCC1806 and NCI-N87 estimated by FACS. (C) Internalization of SKB264 or SKB264 mAb in HCC1806 and NCI-N87 cells. (D) In vitro cell growth inhibitory activity (triplicates, mean ± SEM) in HCC1806, NCI-N87, BxPC-3, Calu-3, NCI-H23 (TROP2+), and NCI-H23 (parental) cells.

Another data set has as its target rat TROP2 protein. As to the kind of experiment: ELISA binding to rat TROP2. How it is done:
(§3) An enzyme-linked immunosorbent assay (ELISA) was used to evaluate the binding and dynamics affinity. Human TROP2 protein (1 μg/ml) (Sino Biological Inc, Wayne, PA) was coated on a 96-well plate overnight at 4°C. The plate was then blocked by Super block reagent (ScyTek Inc. Logan UT) at room temperature for 1 h. Diluted SKB264, SKB264 mAb, or isotype control (human IgG1 antibody) was added for incubation at 37°C for 1 h. After washing, the diluted (1:10,000) goat anti-human IgG Fc-horseradish peroxidase (HRP) (Abcam, Waltham, MA) was added for further incubation for 45 min at 37°C. Finally, TMB solution was added for absorbance measurement at 450 nm using a SpectraMax Plus384 Microplate reader (Molecular Devices, USA).
(§4) Firstly, the affinities of SKB264 and SKB264 mAb to TROP2 of different species were evaluated by ELISA. […] Therefore, we performed the pharmacokinetic experiments in cynomolgus monkeys.
In general terms: An ELISA detects its analyte on a solid surface through an enzyme-linked reagent.

Another data set concerns the target monkey TROP2. As to the kind of experiment: ELISA binding to monkey TROP2. How it is done:
as §3, §4

The subject of the next data set is HCC1806 cells. Put plainly: endocytosis (internalization) experiment in HCC1806. Format: cell-based, human. How it is done: as §1, §2
The subject of data set [1] is TROP2-positive cells NCI-N87. As to the kind of experiment: cell-level binding to NCI-N87 by FACS. Particulars: read-out: Antibody EC50 determination on NCI-N87. Set-up: species or system human. How it is done: as §1, §2
(In general: Flow cytometry measures light scatter and fluorescence of single cells or particles in a stream.)

Data set [2] relates to TROP2-positive cells HCC1806. As to the kind of experiment: cell-level binding to HCC1806 by FACS. Set-up: species or system human. Particulars: read-out: Antibody EC50 determination on HCC1806. How it is done: as §1, §2
In another data set the target is T2, mouse TROP2 protein (Mus musculus, UniProt Q8BGV3).
T2 sequence (Q8BGV3 25-317): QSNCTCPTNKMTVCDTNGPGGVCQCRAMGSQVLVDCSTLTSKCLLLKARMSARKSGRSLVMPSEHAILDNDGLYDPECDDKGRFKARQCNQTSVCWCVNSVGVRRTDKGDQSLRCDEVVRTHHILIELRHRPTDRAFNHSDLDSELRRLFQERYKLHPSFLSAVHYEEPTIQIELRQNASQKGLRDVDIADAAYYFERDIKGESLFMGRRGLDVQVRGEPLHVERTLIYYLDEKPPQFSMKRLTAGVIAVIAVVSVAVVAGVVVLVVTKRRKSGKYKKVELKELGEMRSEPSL
Put plainly: ELISA binding to mouse TROP2. How it is done:
as §3, §4

Another data set concerns the target T3, Human TROP2 protein (Homo sapiens, UniProt P09758).
T3 sequence (P09758 27-323): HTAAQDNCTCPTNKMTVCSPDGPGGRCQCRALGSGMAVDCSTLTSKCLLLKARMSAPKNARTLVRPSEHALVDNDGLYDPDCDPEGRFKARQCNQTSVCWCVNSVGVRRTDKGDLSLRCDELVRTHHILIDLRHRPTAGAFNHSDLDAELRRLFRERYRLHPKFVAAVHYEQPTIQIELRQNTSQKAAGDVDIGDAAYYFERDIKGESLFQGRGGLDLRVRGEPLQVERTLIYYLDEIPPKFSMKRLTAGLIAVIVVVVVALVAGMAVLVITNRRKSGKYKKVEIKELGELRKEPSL
Put plainly: ELISA binding to human TROP2 protein. Further details: purchased Sino Biological Inc, Wayne, PA. How it is done: as §3

As usually defined, the EC50 is the concentration that produces a half-maximal response.

Consider `CCc1c2c(nc3ccc(O)cc13)-c1cc3c(c(=O)n1C2)COC(=O)[C@]3(O)CC` [SN-38], for which the IC50 at DNA topoisomerase I was 1100 nM. In addition, in the data set with HCC1806 xenograft (plasma), the “AUC0-∞ of payload” value was 22.17 ng·h/mL, the AUClast of payload was determined as 19.26 ng·h/mL, the “C max of payload” value was 1.32 ng/mL and the “t 1/2 of payload” value was 15.5 h. Besides, in the data set with HCC1806 xenograft (tumor), the “AUC0-∞ of payload” value came out at 448 ng·h/g, the AUClast of payload is 410 ng·h/g, the “C max of payload” value was found to be 4.5 ng/g and the “T max of payload” value is reported as 24 h. For the same compound, in the data set on HCC1806 xenograft (tumor), the “t 1/2 of payload” value was found to be 57.4 h. Also, in the data set with HCC1806 (TROP2+), the IC50 was determined as 2.61 nM.
With “SKB264 mAb: humanized anti-TROP2 mAb with the same amino acid sequence as the antibody of IMMU-132”, the percentage of endocytosis result in the data set with NCI-N87 cells and with HCC1806 cells was “increased over time” each time. Also, the “EC50 binding to rat TROP2 protein” value at rat TROP2 protein is > 5,000 ng/ml. On monkey TROP2, the “EC50 of the affinity with monkey TROP2” value amounted to 3.399 ng/mL. The EC50 in data set [1] came to 8.09 nM; in [2] it was 16.1 nM. The “EC50 binding to mouse TROP2 protein” value with mouse TROP2 protein was > 5,000 ng/ml. The “EC50 determination on Human TROP2” value with Human TROP2 protein worked out at 2.731 ng/mL.

The record behind these values is article PMC9817100, “Preclinical profiles of SKB264, a novel anti-TROP2 antibody conjugated to topoisomerase inhibitor, demonstrated promising antitumor efficacy compared to IMMU-132” (Frontiers in Oncology, 2022).
